Reference: patent US20110052713A1, “REPAIRING DAMAGED NERVOUS SYSTEM TISSUE WITH NANOPARTICLES” (priority 2008, published 2011)
Where two headings read alike, the source gives them in different places.

Assays:
PC 12 cells [1] = test: MTT assay after acrolein exposure (MSN study); assay type: cell-based; settings: Rattus norvegicus, read-out: MTT activity (absorbance), % of control values
Method: (§1) Exposure to 100 μM acrolein can induce the death of >80% of a population of PC 12 Cells by a few hours, and 100% by 8-12 hours of observation. […] Typically, populations of cells with acrolein-mediated damage show a significant reduction in MTT activity due to the collapse of mitochondria function.

[2] = tested on: acrolein poisoned cultures; test: ROS level in acrolein poisoned cultures; assay type: cell-based; settings: 100 μM acrolein; acrolein row = acrolein alone; read-out: level of ROS, % of control values
PC 12 cells [3] = test: MTT assay after acrolein exposure (chitosan nanoparticles); assay type: cell-based
Method: (§2) In one example, functional tests (MTT and LDH exclusion tests) were used to evaluate the response to different chitosan formulations in PC 12 cells suffering from acrolein exposure. We compared the effectiveness of these formulations using entire cell populations in six different groups: 1) a control group, (2) a 100 μM acrolein-exposed group, (3) a 100 μM acrolein-exposed and Chi-DS nanoparticle—treated group, (4) a 100 μM acrolein-exposed and Chi-DS/Hy nanoparticle—treated group, (5) a 100 μM acrolein-exposed and Chi-TPP nanoparticle—treated group, and (6) a 100 μM acrolein-exposed and Chi-TPP/Hy nanoparticle—treated group. First, we tested whether chitosan nanoparticles were capable of sufficiently reducing acrolein cytotoxicity using the MTT assay. In all experiments, the various types of nanoparticles were added to the cell medium after 15 min following the exposure to acrolein. As a consequence of acrolein exposure, approximately 98% of the cells in culture died within a couple of hours. Acrolein-induced cytotoxicity was expressed as a percentage of MTT activity, which is, as explained above, an indicator of aberrant mitochondria functioning. Thus, MTT activity subsequent to 100 acrolein exposure was decreased to 3.5±2.9% of controls values. […] Even more significant increase was observed after application of hydralazine-entrapped chitosan nanoparticles. […]

PC 12 cells [4] = settings: 100 μM acrolein, cited from earlier work
PC 12 cells [5] = test: LDH release assay after acrolein exposure (MSN study); assay type: cell-based; settings: Rattus norvegicus, PC-12, 0.25 h; 100 μM acrolein; treatment added with 15 min delay; acrolein row = acrolein alone; read-out: LDH release, % of control values
Method: as §1

PC 12 cells [6] = test: LDH release after acrolein exposure (chitosan nanoparticles); assay type: cell-based; settings: Rattus norvegicus, 100 μM acrolein, post-treatment with nanoparticles, acrolein row = acrolein alone, read-out: LDH release, % of control values
Method: as §2

PC 12 cells [7] = test: Live-dead cell assay after acrolein exposure; assay type: cell-based; settings: 5 hr, control cells 90±7%
[8] = tested on: voltage gated fast potassium channels; settings: paralyzed persons; cited from earlier work

For `NNc1nncc2ccccc12` [hydralazine], the activity at 500 µM (PC 12 cells [1]) was 53.8 ± 18.6%.
In the case of `C=CC=O` [acrolein], the activity at 100 µM [2] is reported as 120 ± 14%, the activity at 100 µM (PC 12 cells [3]; Rattus norvegicus, PC-12, 100 μM acrolein, nanoparticles added 15 min after, after 5 hr, acrolein row = acrolein alone, read-out: MTT activity / survival, % of control values) is reported as 3.5 ± 2.9% and the “cells in culture that died” value (PC 12 cells [3]; acrolein exposure, within a couple of hours) is reported as “approximately 98%”. The “death of cell population” value (PC 12 cells [4]; by 8-12 hours of observation) was 100%, the “death of cell population” value (PC 12 cells [4]; by a few hours) was greater than 80% and the activity at 100 µM (PC 12 cells [5]) was 168 ± 15.4%. For the same compound, the activity at 100 µM (PC 12 cells [1]) was 11 ± 10.2%, the activity at 100 µM (PC 12 cells [6]) was 178 ± 25.4% and the “cell survival (live-dead cell assay)” value (PC 12 cells [7]) was 30±8%.
In the case of `Nc1ccncc1` [4-Aminopyridine], the “share of treated population with clinically meaningful recoveries of function” value [8] is listed as “about 30%”.
